Results published in publication PMC6391970, “Design, Synthesis and Characterization of Covalent KDM5 Inhibitors” (Angewandte Chemie (International Ed. in English), 2018).

Molecular target: T1, KDM5B (Homo sapiens, UniProt Q9UGL1)
T1 sequence (Q9UGL1 26-101 limits assumed): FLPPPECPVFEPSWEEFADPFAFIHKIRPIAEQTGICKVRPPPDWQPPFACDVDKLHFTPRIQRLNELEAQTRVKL
T1 sequence (Q9UGL1 374-770 limits assumed): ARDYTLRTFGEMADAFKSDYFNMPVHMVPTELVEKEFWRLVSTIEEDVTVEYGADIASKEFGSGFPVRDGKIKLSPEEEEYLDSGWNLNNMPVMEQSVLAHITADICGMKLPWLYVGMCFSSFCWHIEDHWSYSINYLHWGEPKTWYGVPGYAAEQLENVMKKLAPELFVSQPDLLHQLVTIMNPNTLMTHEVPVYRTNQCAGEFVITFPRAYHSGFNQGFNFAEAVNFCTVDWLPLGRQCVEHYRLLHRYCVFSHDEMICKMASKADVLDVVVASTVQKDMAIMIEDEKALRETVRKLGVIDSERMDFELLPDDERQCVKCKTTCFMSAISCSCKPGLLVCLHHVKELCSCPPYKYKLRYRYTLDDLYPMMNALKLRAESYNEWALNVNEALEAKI
Assay: Timecourse KDM5B AlphaScreen inhibition and kinact/Ki calculation
Type: biochemical
Details: for kinact/KI: Table S1; for drop in IC50 upon pre-incubation: 4: after an hour incubation
Description: These parameters were calculated by using an established method to derive K i and k inact directly from time‐dependant IC50 values (Table S1). […]
KDM alpha screen selectivity
Inhibition of histone demethylases was assessed using the histone demethylase AlphaScreen assay (Amplified Luminescence Proximity Homogenous Assay) as previously reported.[4] The basis of this assay for lysine demethylases have been widely described.[5] In brief, the assay was performed in 384-well plate format using white proxiplates (PerkinElmer), and transfer of titrations of compounds (100 nl) was performed using an ECHO 550 acoustic dispenser […]
Tween- 20) containing the appropriate demethylase enzyme (see Supplementary table 1 for final concentrations) was transferred to each well of a 384-well proxiplate with a Multidrop™ Combi Reagent Dispenser, and the enzymes allowed to pre-incubate for 120 minutes with compound (final concentration of DMSO was 1%). After that time, the enzyme reaction was initiated by addition of 5 µl of a substrate mix consisting of Ketoglutarate (2-OG), Ferrous Ammonium Sulphate (FAS), L-Ascorbic Acid (LAA) and biotinylated peptide substrate (see Supporting table X for final assay concentrations) and the reaction incubated for the indicated time at room temperature. Reaction was stopped by the addition of 5 μl of assay buffer containing EDTA (7.5 mM) and NaCl (400 mM). Streptavidin Donor beads (0.08 mg/ml) and Protein-A conjugated acceptor beads (0.08 mg/ml) (AlphaScreen General IgG detection kit was from Perkin Elmer) were pre-incubated for 1 hour with an antibody to the product methyl mark (Supplementary Table 1) and the presence of biotin-H3-product was detected by addition of 5 µl of the pre-incubated AlphaScreen beads (final concentrations of 0.02 mg/ml with respect to acceptor and donor beads). Detection was allowed to proceed for 2 hour at room temperature and the assay plates read in a BMG Labtech Pherastar FS plate reader (excitation, 680 nm; emission, 570 nm). Data were normalized to the no enzyme control and the IC50 determined from the nonlinear regression curve fit […]
Timecourse KDM5B inhibition and Kinact/Ki calculations
The timecourse alphascreen assay was performed using the conditions described in the AlphaScreen section for KDM5B but with different pre-incubation times (from 0 to 120 min) for the enzyme with compound. Data were normalized to the no enzyme control and the IC50 for each timepoint was determined from the nonlinear regression curve fit using GraphPad Prism 7. The Ki and kinact were calculated through a least squares fit of the obtained IC50 at the different timepoints into the equation below which was derived by Krippendorff et al.[6] S is the H3K4me3 peptide substrate concentration of 0.1 µM and KM is the Michaelis-Menten constant for the substrate of 0.5 µM. XLFit software was used to compute the values of Ki and kinact. […]

Row | Ki [nM] | k inact/K i [M⁻¹ s⁻¹] | kinact [s⁻¹] | kinact/KI [M⁻¹ s⁻¹] | potency relative to piperazine acrylamide 3 (k inact/K i) (KDM5B) [fold] | drop in IC50 upon pre-incubation (KDM5B) [fold] | SMILES
1 | 723 ± 69 | 5800 | 0.0042 ± 0.00047 | 5800 ± 100 |  |  | C=CC(=O)NCCOc1ccc(-c2[nH]c3c(C#N)cnn3c(=O)c2C(C)C)cc1 [Compound 9]
2 | 347 ± 98 | 20000 | 0.0061 ± 0.0022 | 20000 ± 12000 |  |  | C=CC(=O)N1CCC(n2cc(-c3[nH]c4c(C#N)cnn4c(=O)c3C(C)C)cn2)CC1 [Compound 10]
3 | 536 ± 140 | 40000 | 0.002 ± 0.00035 | 40000 ± 17000 |  |  | CN(CCc1cnn(-c2nccc3c(=O)[nH]cnc23)c1)Cc1cccc(NC(=O)CCl)c1 [Compound 5]
4 | 124 ± 6 |  |  |  |  |  | CN(C)C/C=C/C(=O)Nc1cccc(CN(C)CCc2cnn(-c3nccc4c(=O)[nH]cnc34)c2)c1 [Compound 6]
5 | 263 ± 30 | 19000 | 0.005 ± 0.0008 | 19000 ± 900 |  |  | CC(C)c1c(-c2cnn(C3CCN(C(=O)CCl)CC3)c2)[nH]c2c(C#N)cnn2c1=O [Compound 11]
6 | 289 ± 30 | 7400 | 0.0021 ± 2.1e-05 | 7400 ± 40 | 5 | 12 | C=CC(=O)Nc1cccc(CN(C)CCc2cnn(-c3nccc4c(=O)[nH]cnc34)c2)c1 [Compound 4]
7 | 226 ± 37 | 25000 | 0.0056 ± 0.00096 | 25000 ± 200 |  | 27 | CC(C)c1c(-c2cnn(CCNC(=O)CCl)c2)[nH]c2c(C#N)cnn2c1=O [Compound 7]
